These are literature values, as cited in patent publication US20220142981A1, “APREMILAST LIPOPHILIC TOPICAL PHARMACEUTICAL COMPOSITIONS” (APRAMITHA INNOVATIONS PRIVATE LIMITED, priority 2019, published 2022).

Regarding `CCOc1cc([C@@H](CS(C)(=O)=O)N2C(=O)c3cccc(NC(C)=O)c3C2=O)ccc1OC` [Apremilast, N-[2-[(lS)-l-(3-ethoxy-4-methoxyphenyl)-2-(methylsulfonyl)ethyl]-l,3-dioxo-2,3-dihydro-lH-isoindol-4-yl]acetamide], the “solubility in polar solvents” value (polar solvents) is “minimal solubility”. For the same compound, the solubility in water entry (water) is recorded as “insolubility”.
